In article PMC10471769, “Biochemical analysis of Komagataella phaffii oxidative folding proposes novel regulatory mechanisms of disulfide bond formation in yeast” (Scientific Reports, 2023):

How the values were obtained:
[1] = biological target: T1, monomeric K. phaffii Ero1 (Komagataella phaffii, UniProt F2QNN1, C136A); assay: absorbance at […] nm after reflavination and size exclusion; type: binding; conditions: stoichiometry, no affinity constant; 1:2 molar excess FAD+ overnight on ice, phosphate pH 7.0
T1 construct: His-tagged 1-384 active core, C-terminal amphipathic helix removed, monomer; E. coli BL21(DE3) with CyDisCo
T1 sequence (F2QNN1 entry or part of it C136A): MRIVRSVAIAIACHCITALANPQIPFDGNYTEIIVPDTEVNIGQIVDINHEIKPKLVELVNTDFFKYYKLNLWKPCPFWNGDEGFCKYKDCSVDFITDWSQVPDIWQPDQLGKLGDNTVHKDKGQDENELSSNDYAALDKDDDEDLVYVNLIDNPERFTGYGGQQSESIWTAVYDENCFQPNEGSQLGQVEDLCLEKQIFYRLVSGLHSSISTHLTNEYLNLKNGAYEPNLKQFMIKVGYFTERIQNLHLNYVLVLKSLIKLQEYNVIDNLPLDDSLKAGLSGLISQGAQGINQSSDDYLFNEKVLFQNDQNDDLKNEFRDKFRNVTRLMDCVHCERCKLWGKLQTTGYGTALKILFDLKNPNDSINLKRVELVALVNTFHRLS

[2] = biological target: T2, K. phaffii Ero1-Pdi1 complex (wild type) (Komagataella phaffii, UniProt F2QNN1); assay: as above; type: binding; conditions: stoichiometry, no affinity constant; 1:2 molar excess FAD+ overnight on ice, phosphate pH 7.0
T2 construct: 1:1 disulfide-linked heterodimer (Ero1 Cys136-Pdi1 Cys404); His-tagged Ero1 1-384 core without C-terminal amphipathic helix (45 kDa) plus Pdi1 (56 kDa); E. coli BL21(DE3) with customized CyDisCo; with Protein disulfide-isomerase
T2 sequence (F2QNN1 entry or part of it): as the sequence (F2QNN1 entry or part of it C136A) above, with A136C counted along it
T2 sequence (F2QY05 entry or part of it, further chain): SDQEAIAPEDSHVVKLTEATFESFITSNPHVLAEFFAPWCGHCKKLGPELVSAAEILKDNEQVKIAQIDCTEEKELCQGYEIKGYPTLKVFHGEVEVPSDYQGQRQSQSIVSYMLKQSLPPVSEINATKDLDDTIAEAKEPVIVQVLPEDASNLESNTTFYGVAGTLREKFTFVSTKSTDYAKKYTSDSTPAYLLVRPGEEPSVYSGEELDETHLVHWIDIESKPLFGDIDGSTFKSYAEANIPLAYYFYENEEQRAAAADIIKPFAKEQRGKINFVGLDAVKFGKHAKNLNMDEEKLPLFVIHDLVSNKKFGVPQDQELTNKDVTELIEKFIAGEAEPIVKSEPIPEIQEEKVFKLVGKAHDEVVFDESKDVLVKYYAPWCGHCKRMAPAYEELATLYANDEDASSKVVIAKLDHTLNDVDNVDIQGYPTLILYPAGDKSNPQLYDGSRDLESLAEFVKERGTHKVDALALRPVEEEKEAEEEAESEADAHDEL

FAD+ molecules per monomer [1]: 0.85 ± 0.04 molecules per monomer | FAD+ molecules per complex [2]: 0.93 ± 0.05 molecules per complex
Compound: Cc1cc2nc3c(=O)[nH]c(=O)nc-3n(C[C@H](O)[C@H](O)[C@H](O)COP(=O)(O)OP(=O)(O)OC[C@H]3O[C@@H](n4cnc5c(N)ncnc54)[C@H](O)[C@@H]3O)c2cc1C [FAD+]
